Measured values from patent EP2508186A1, “Phenoxazinones or phenothiazones as inhibitors of amyloid formation” (Max-Delbrück-Centrum für Molekulare Medizin, priority 2011, dated 2012).
Like-named read-outs stand apart in the source and are kept apart here.

Assays:
Aβ42 [1] = molecular target: T1, Aβ42 (Homo sapiens, UniProt P05067); assay: Membrane filter retardation assay (FRA) of Aβ42 aggregation; format: biochemical
T1 construct: the amyloid-β 1-42 (Aβ42) peptide
Procedure: 2.1.1. Protein aggregation. For aggregation reactions, Aβ42 stock solution (1 mM in DMSO) was diluted in phosphate buffer (100 mM sodium phosphate, 10 mM NaCl, pH 7.4) to 15 µM and incubated in 1.5 ml Eppendorf tubes (Eppendorf, Germany) at 37°C. Generation of soluble Aβ42 oligomers was performed as described (Lambert, 1998). Aβ42 DMSO stock solutions were diluted in Ham's F12 medium without phenol red (Biosource) at a final peptide concentration of 100 µM, with or without test compounds. After brief vortexing, samples were incubated at 4-6°C for 24 h. […]
2.1.2. […] Aggregates retained on the filter membrane were detected using the 6E10 antibody (1 : 5.000) (Sigma, Deisenhofen, Germany), and secondary antibodies conjugated to either horseradish peroxidase or alkaline phosphatase (Promega, Germany). […] After 30 min incubation at 37°C with proteinase K, samples were denatured and analyzed by FRA.
2.2.1 Identification of small molecules that stimulate Aβ42 aggregation. In order to find chemical compounds that promote Aβ42 amyloidogenesis, a membrane filter retardation assay (FRA) was established that allows the identification of large, insoluble protein aggregates, while monomers and small, soluble oligomers are not detected (Fig. 1). […]

Aβ42 aggregates = molecular target: T2, Aβ42 aggregates (Homo sapiens, UniProt P05067); assay: Dot blot assays of Aβ42 aggregates with antibodies 4G8, 6E10 and B10; format: biochemical; conditions: Aβ42 15 µM
T2 construct: the amyloid-β 1-42 (Aβ42) peptide
Procedure: 2.2.6. 04-generated amyloid fibrils have altered surface properties. We next examined whether 04 treatment influences the morphology of mature amyloid fibrils. […] of chemical compound and the resulting aggregates were analyzed with dot blot assays using the monoclonal antibodies 6E10 and 4G8, which specifically recognize amino acids 4-9 and 18-22 in Aβ42 peptides, respectively (Kim, 1988).
To confirm the observation that 04 alters surface properties of Aβ42 aggregates, we also examined whether 04-generated Aβ42 aggregates can be detected with the conformation specific antibody B10, which preferentially recognizes mature, β-sheet-rich amyloid fibrils and protofibrils, while monomers and low molecular oligomers are less efficiently detected (Habicht, 2007).

Aβ42 [2] = molecular target: T1, Aβ42; assay: SDS-PAGE (silver staining / immunoblotting) of Aβ42 aggregation products; format: biochemical
Procedure: 2.2.3. O4 promotes the formation of SDS-stable, protease-resistant protein aggregates. To investigate whether 04 treatment influences the stability of amyloid structures, we analyzed compound-treated Aβ42 aggregation reactions after 48 h with SDS-PAGE and silver staining (Fig. 3a). In the absence of 04, aggregation products resolved to monomers (-4 kDa), small oligomers (-10-12 and 14-16 kDa), medium-size oligomers (-100-150 kDa) and large aggregates (>250 kDa) in SDS gels, supporting previously published studies that Aβ42 monomers in vitro assemble into a heterogenous mixture of low and high molecular weight aggregate species (Bitan, 2003). However, in the presence of 04 an altered distribution of SDS-stable Aβ42 aggregate species was observed.
The effect of 04 on early aggregate species was also visible when treated and untreated Aβ42 preparations containing mainly small oligomers and protofibrils were analyzed after 24 h by SDS-PAGE and immunoblotting.
To investigate whether 04 treatment influences Aβ42 aggregate formation cell culture media were also analyzed by SDS-PAGE and silver staining (Fig. 9b). In-untreated samples, a relatively large amount of Aβ42 monomers (-4 kDa) and small oligomers (-12 kDa) was detected, while in 04 treated samples the concentration of these Aβ42 species was diminished.

Aβ42 peptides [3] = molecular target: T3, Aβ42 peptides (Homo sapiens, UniProt P05067); assay: Binding to Aβ42 10-mer peptide array and short peptides; conditions: dot blot, colorimetric, n = 4
T3 construct: made in house; spotted short peptides
Procedure: (§1) 2.2.5. 04 binds preferentially to hydrophobic regions in Aβ42 peptides. To define potential 04 binding regions in Aβ42 peptides an array of 33 synthetic peptides representing the complete Aβ42 sequence was prepared (Beutling, 2008) and probed for an interaction with the chemical compound. Each synthetic peptide was composed of 10 amino acids, which overlapped in sequence with the next peptide by 9 residues.
(§2) We next investigated whether the position of hydrophobic amino acids in the Aβ42 peptide sequence influences 04 binding. Two short peptides containing aromatic residues were synthesized (A: KLVFFAE, aa 16-22 of Aβ42 and B: EFAVFLK, a scrambled version of A) and 04 binding was quantified colorimetrically.

Aβ42 peptides [4] = assay: as above; conditions: 04 300 µM, 33 peptides overlapping by 9 residues, colorimetric
Procedure: as §1, §2

Aβ42 oligomers = molecular target: T4, Aβ42 oligomers (Homo sapiens, UniProt P05067); assay: Colorimetric dot blot binding assay on nitrocellulose membrane; conditions: for Kd: 04 0.4-200 µM, 15 min, read-out: apparent dissociation constant
T4 construct: the amyloid-β 1-42 (Aβ42) peptide
Procedure: 2.2.4. 04 converts small, unstable Aβ42 oligomers into larger SDS-stable protein aggregates. To examine whether 04 converts small Aβ42 oligomers into larger amyloid fibrils, we first tested whether the compound can bind to different types of preformed aggregate species. Peptide preparations highly enriched in Aβ42 monomers (Ehrnhoefer, 2008), spherical oligomers (Ma, 2006) or large amyloid fibrils (Ehrnhoefer, 2008) were produced and incubated with 04 for 15 minutes at room temperature. Then, samples were spotted onto a nitrocellulose membrane and after washing with buffer (non-denaturing conditions) 04 binding was examined. As 04 is a dye and blue in color its binding to amyloid aggregates can be detected colorimetrically (Fig. 3c).
Binding of 04 to Aβ42 oligomers was quantified colorimetrically (Fig. 5).

T4 sequence (P05067 672-713 limits assumed): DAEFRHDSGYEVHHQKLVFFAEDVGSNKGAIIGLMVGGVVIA
T1 sequence (P05067 672-713 limits assumed): as above
T2 sequence (P05067 672-713 limits assumed): as above

## O=c1cc2oc3cc(O)c(-c4ccc(O)cc4O)cc3nc-2cc1-c1ccc(O)cc1O [Compound 04, 2,8-bis-(2,4-dihydroxyphenyl)-7-hydroxy-phenoxazin-3-one]
Aβ42 [1]; Aβ42 15 µM, equimolar or 5-fold molar excess of compound, detection with 6E10 antibody
  formation of SDS-stable insoluble Aβ42 aggregates: promotes spontaneous assembly of Aβ42 insoluble aggregates in a concentration-dependent manner
Aβ42 [1]; aggregates generated 4 and 7 d at 37°C with or without 04 (15 µM), proteinase K 10-200 µg/ml, 30 min at 37°C
  proteinase K resistance of Aβ42 aggregates: more proteinase K resistant than untreated aggregates
Aβ42 aggregates; 48 h at 37°C, increasing concentrations of 04
  B10 antibody binding to Aβ42 aggregates: reduced B10 binding ability
Aβ42 aggregates; 5 d at 37°C with or without 04, no such effect with 6E10
  recognition of Aβ42 aggregates by 4G8 antibody: less efficiently recognized by the 4G8 antibody
Aβ42 [2]; Aβ42 15 µM, 04 1.5-150 µM, 48 h, 37°C, cell-free
  distribution of SDS-stable Aβ42 aggregate species (SDS-PAGE, silver staining): the relative amount of medium-size, SDS-stable oligomers and large aggregates was increased, while the amount of monomers and small oligomers was decreased
Aβ42 [2]; SH-SY5Y culture media, Aβ42 5 µM, 04 5 µM or 25 µM, 48 h
  Aβ42 monomers and small oligomers in cell culture media (SDS-PAGE, silver staining): diminished
Aβ42 [2]; preformed Aβ42 oligomers 110 µM, 04 30, 100 and 300 µM, 24 h
  assembly of higher molecular weight Aβ42 aggregates (SDS-PAGE, immunoblotting): stimulates the assembly of SDS-stable, higher molecular weight Aβ42 aggregates in a concentration-dependent manner
Aβ42 peptides [3]
  binding to peptide A (KLVFFAE, aa 16-22) and scrambled peptide B (EFAVFLK): readily interacts with peptide A but not with the control peptide B
Aβ42 peptides [4]
  binding to 10-mer peptide array of the Aβ42 sequence: most strongly interacts with Aβ42 peptides, which contain non-polar, hydrophobic amino acids
Aβ42 oligomers; Aβ42 oligomers equivalent to monomer concentration 3 µM
  Kd: 50 ± 2 µM
Aβ42 oligomers; Aβ42 oligomers equivalent to monomer concentration 6 µM
  Kd: 25 ± 1 µM
Aβ42 oligomers; Aβ42 oligomers equivalent to monomer concentration 12 µM
  Kd: 3.5 ± 0.1 µM
Aβ42 oligomers; Aβ42 preparations 15 µM, 04 3, 15 and 75 µM, 15 min at room temperature, non-denaturing wash
  04 staining of Aβ42 monomers, oligomers and fibrils: readily stains oligomeric and fibrillar Aβ42 aggregates, while monomers were less efficiently detected
Aβ42 oligomers; cooperative binding model fitted to the oligomer binding data
  Hill coefficient n: 4
